From patent US7585859B2, “PDE4B inhibitors and uses therefor” (Plexxikon, Inc., priority 2004, dated 2009)

Legend:
[1] = biological target: T1, PDE4B: The catalytic domain of human PDE4B from S152-S528 (Homo sapiens, UniProt Q07343); experiment: PDE4 IC50 determination by Scintillation Proximity Assay, PDE4B; type: biochemical; conditions: Table 1B, Formula I compounds; read-out: IC50 PDE4B
T1 construct: His6 (N); thrombin cleavage site (N); made in house; host or cells: E. coli
Summary of the method: (§1)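 Hydrolysis of [^3H]cAMP measured by SPA with yttrium silicate beads, which bind the [^3H]AMP product strongly and cAMP weakly. Enzyme at 80 ng/ml for PDE4B, 4 ng/ml for PDE4D; 30 min at 30°.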

[2] = biological target: T2, PDE4D (Homo sapiens, UniProt Q08499); experiment: PDE4 IC50 determination by Scintillation Proximity Assay, PDE4D; type: biochemical; conditions: Table 1B, Formula I compounds; read-out: IC50 PDE4D
T2 construct: PDE4D: The catalytic domain of human PDE4B from S3 16-V692; His6 (N); thrombin cleavage site (N); made in house; host or cells: E. coli
Summary of the method: as §1

T2 sequence (Q08499 380-756): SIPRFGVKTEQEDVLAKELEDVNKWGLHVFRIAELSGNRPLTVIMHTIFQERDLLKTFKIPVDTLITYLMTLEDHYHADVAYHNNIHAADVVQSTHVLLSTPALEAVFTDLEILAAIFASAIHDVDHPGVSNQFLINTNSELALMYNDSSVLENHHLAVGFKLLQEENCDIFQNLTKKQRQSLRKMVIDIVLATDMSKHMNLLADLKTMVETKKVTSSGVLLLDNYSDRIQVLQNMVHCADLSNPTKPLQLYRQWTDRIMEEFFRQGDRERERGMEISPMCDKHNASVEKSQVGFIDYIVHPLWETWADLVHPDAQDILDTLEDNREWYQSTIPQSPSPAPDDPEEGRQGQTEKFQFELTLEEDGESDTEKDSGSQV
T1 sequence (Q07343 with tags, fused parts or gaps): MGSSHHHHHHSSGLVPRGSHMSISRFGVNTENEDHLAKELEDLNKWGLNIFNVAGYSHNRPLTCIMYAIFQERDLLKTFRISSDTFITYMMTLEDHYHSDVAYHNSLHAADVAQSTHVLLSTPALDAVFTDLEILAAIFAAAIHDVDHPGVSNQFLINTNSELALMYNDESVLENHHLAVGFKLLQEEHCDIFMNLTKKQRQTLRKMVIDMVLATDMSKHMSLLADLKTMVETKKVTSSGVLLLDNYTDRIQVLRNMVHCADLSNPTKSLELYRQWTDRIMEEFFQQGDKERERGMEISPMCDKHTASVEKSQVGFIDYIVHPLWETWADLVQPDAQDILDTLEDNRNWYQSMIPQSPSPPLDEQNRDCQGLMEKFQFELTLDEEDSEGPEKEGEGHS

Compound | IC50 [1] | IC50 [2]
COc1ccc(Nc2sc(C(=O)c3ccccn3)c(N)c2C#N)cc1 [Compound 1-145, 4-Amino-2-(4-methoxy-phenylamino)-5-(pyridine-2-carbonyl)-thiophene-3-carbonitrile] | > 10 µM | > 10 µM
N#Cc1c(NC2CCOC2=O)sc(C(=O)c2ccccn2)c1N (centres unmarked) [Compound 1-152, 4-Amino-2-(2-oxo-tetrahydro-furan-3-ylamino)-5-(pyridine-2-carbonyl)-thiophene-3-carbonitrile] | > 10 µM | > 10 µM
N#Cc1c(Nc2ccc(Cl)c(C(F)(F)F)c2)sc(C(=O)c2ccccc2)c1N [Compound 1-168, 4-Amino-5-benzoyl-2-(4-chloro-3-trifluoromethyl-phenylamino)-thiophene-3-carbonitrile] | < 10 µM | < 10 µM
N#Cc1c(Nc2cccc([N+](=O)[O-])c2)sc(C(=O)c2ccccc2)c1N [Compound 1-170, 4-Amino-5-benzoyl-2-(3-nitro-phenylamino)-thiophene-3-carbonitrile] | < 10 µM | < 10 µM
CCOC(=O)c1cc(C(=O)c2sc(Nc3cccc(SC)c3)c(C#N)c2N)on1 [Compound 1-176, 5-[3-Amino-4-cyano-5-(3-methylsulfanyl-phenylamino)-thiophene-2-carbonyl]-isoxazole-3-carboxylic acid ethyl ester] | < 10 µM | < 10 µM
COc1ccc(C(=O)c2sc(NC3CC3)c(C#N)c2N)cc1 [Compound 1-178, 4-Amino-2-cyclopropylamino-5-(4-methoxy-benzoyl)-thiophene-3-carbonitrile] | < 10 µM | < 10 µM
N#Cc1c(NC2CCCC2)sc(C(=O)C2CC2)c1N [Compound 1-179, 4-Amino-2-cyclopentylamino-5-cyclopropanecarbonyl-thiophene-3-carbonitrile] | < 10 µM | < 10 µM
N#Cc1c(NC2CCCC2)sc(C(=O)c2ccc(Cl)cc2)c1N [Compound 1-182, 4-Amino-5-(4-chloro-benzoyl)-2-cyclopentylamino-thiophene-3-carbonitrile] | < 10 µM | > 10 µM
COc1ccc(C(=O)c2sc(NC3CCCC3)c(C#N)c2N)cc1 [Compound 1-183, 4-Amino-2-cyclopentylamino-5-(4-methoxy-benzoyl)-thiophene-3-carbonitrile] | < 10 µM | < 10 µM
N#Cc1c(Nc2ccc(Oc3ccccc3)cc2)sc(C(=O)C2CC2)c1N [Compound 1-184, 4-Amino-5-cyclopropanecarbonyl-2-(4-phenoxy-phenylamino)-thiophene-3-carbonitrile] | < 10 µM | < 10 µM
N#Cc1c(Nc2ccc(Oc3ccccc3)cc2)sc(C(=O)c2ccccc2)c1N [Compound 1-185, 4-Amino-5-benzoyl-2-(4-phenoxy-phenylamino)-thiophene-3-carbonitrile] | < 10 µM | < 10 µM
N#Cc1c(NC2CCCC2)sc(C(N)=O)c1N [Compound 1-196, 3-Amino-4-cyano-5-cyclopentylamino-thiophene-2-carboxylic acid amide] | > 10 µM | > 10 µM
N#Cc1c(Nc2ccc(Oc3ccccc3)cc2)sc(C(N)=O)c1N [Compound 1-197, 3-Amino-4-cyano-5-(4-phenoxy-phenylamino)-thiophene-2-carboxylic acid amide] | > 10 µM | > 10 µM
CCOC(=O)c1sc(NC2CCCC2)c(C#N)c1N [Compound 1-199, 3-Amino-4-cyano-5-cyclopentylamino-thiophene-2-carboxylic acid ethyl ester] | < 10 µM | < 10 µM
CCOC(=O)C(=O)c1sc(NC2CCCC2)c(C#N)c1N [Compound 1-201, (3-Amino-4-cyano-5-cyclopentylamino-thiophen-2-yl)-oxo-acetic acid ethyl ester] | < 10 µM | < 10 µM
N#Cc1c(NC2CCCC2)sc(C(=O)c2ccsc2)c1N [Compound 1-202, 4-Amino-2-cyclopentylamino-5-(thiophene-3-carbonyl)-thiophene-3-carbonitrile] | < 10 µM | < 10 µM
N#Cc1c(NC2CCCC2)sc(C(=O)c2ccc(-c3ccccc3)s2)c1N [Compound 1-203, 4-Amino-2-cyclopentylamino-5-(5-phenyl-thiophene-2-carbonyl)-thiophene-3-carbonitrile] | < 10 µM | < 10 µM
N#Cc1c(NC2CCCC2)sc(C(=O)c2cc(Br)no2)c1N [Compound 1-207, 4-Amino-5-(3-bromo-isoxazole-5-carbonyl)-2-cyclopentylamino-thiophene-3-carbonitrile] | < 10 µM | < 10 µM
CC(C)Nc1sc(C(=O)c2ccc(Cl)c(Cl)c2)c(N)c1C#N [Compound 1-217, 4-Amino-5-(3,4-dichloro-benzoyl)-2-isopropylamino-thiophene-3-carbonitrile] | < 10 µM | < 10 µM
CN1CCN(C(=O)C(=O)c2sc(NC3CCCC3)c(C#N)c2N)CC1 [Compound 1-218, 4-Amino-2-cyclopentylamino-5-[2-(4-methyl-piperazin-1-yl)-2-oxo-acetyl]-carbonitrile] | > 10 µM | > 10 µM

Now from value to compound:

IC50 [1] | IC50 [2] | Compound
< 10 µM | < 10 µM | N#Cc1c(Nc2ccccc2F)sc(C(=O)c2ccccn2)c1N [Compound 1-144, 4-Amino-2-(2-fluoro-phenylamino)-5-(pyridine-2-carbonyl)-thiophene-3-carbonitrile]
< 10 µM | > 10 µM | N#Cc1cccc(Nc2sc(C(=O)c3ccccn3)c(N)c2C#N)c1 [Compound 1-146, 4-Amino-2-(3-cyano-phenylamino)-5-(pyridine-2-carbonyl)-thiophene-3-carbonitrile]
< 10 µM | < 10 µM | N#Cc1c(Nc2ccc3c(c2)CCC3)sc(C(=O)c2ccccn2)c1N [Compound 1-147, 4-Amino-2-(indan-5-ylamino)-5-(pyridine-2-carbonyl)-thiophene-3-carbonitrile]
< 10 µM | < 10 µM | COC(=O)c1ccccc1Nc1sc(C(=O)c2ccccn2)c(N)c1C#N [Compound 1-148, 2-[4-Amino-3-cyano-5-(pyridine-2-carbonyl)-thiophen-2-ylamino]-benzoic acid methyl ester]
< 10 µM | < 10 µM | COc1ccc(CNc2sc(C(=O)c3ccccn3)c(N)c2C#N)cc1OC [Compound 1-149, 4-Amino-2-(3,4-dimethoxy-benzylamino)-5-(pyridine-2-carbonyl)-thiophene-3-carbonitrile]
< 10 µM | > 10 µM | N#Cc1c(Nc2ccc(Oc3ccccc3)cc2)sc(C(=O)c2ccccn2)c1N [Compound 1-150, 4-Amino-2-(4-phenoxy-phenylamino)-5-(pyridine-2-carbonyl)-thiophene-3-carbonitrile]
< 10 µM | > 10 µM | N#Cc1c(Nc2ccc(C(=O)NC3CCOC3=O)cc2)sc(C(=O)c2ccccn2)c1N (centres unmarked) [Compound 1-151, 4-[4-Amino-3-cyano-5-(pyridine-2-carbonyl)-thiophen-2-ylamino]-N-(2-oxo-tetrahydro-furan-3-yl)-benzamide]
< 10 µM | > 10 µM | CCc1ccccc1Nc1sc(C(=O)c2ccccn2)c(N)c1C#N [Compound 1-153, 4-Amino-2-(2-ethyl-phenylamino)-5-(pyridine-2-carbonyl)-thiophene-3-carbonitrile]
< 10 µM | > 10 µM | COC(=O)C(CC(C)C)Nc1sc(C(=O)c2cc(OC)ccc2OC)c(N)c1C#N (centres unmarked) [Compound 1-154, 2-[4-Amino-3-cyano-5-(2,5-dimethoxy-benzoyl)-thiophen-2-ylamino]-4-methyl-pentanoic acid methyl ester]
< 10 µM | < 10 µM | COC(=O)C(CCSC)Nc1sc(C(=O)c2cccc(Cl)c2)c(N)c1C#N (centres unmarked) [Compound 1-156]
< 10 µM | < 10 µM | Cc1ccc(C(=O)c2sc(Nc3ccc4c(c3)CCC4)c(C#N)c2N)c(C)c1 [Compound 1-157, 4-Amino-5-(2,4-dimethyl-benzoyl)-2-(indan-5-ylamino)-thiophene-3-carbonitrile]
< 10 µM | > 10 µM | Cc1ccc(C(=O)c2sc(Nc3ccc(Oc4ccccc4)cc3)c(C#N)c2N)c(C)c1 [Compound 1-158, 4-Amino-5-(2,4-dimethyl-benzoyl)-2-(4-phenoxy-phenylamino)-thiophene-3-carbonitrile]
< 10 µM | < 10 µM | N#Cc1c(NC2CCOC2=O)sc(C(=O)c2csc3ccccc23)c1N (centres unmarked) [Compound 1-159, 4-Amino-5-(benzo[b]thiophene-3-carbonyl)-2-(2-oxo-tetrahydro-furan-3-ylamino)-thiophene-3-carbonitrile]
< 10 µM | > 10 µM | Cc1ccccc1C(=O)Nc1sc(C(=O)c2ccccn2)c(N)c1C#N [Compound 1-160, N-[4-Amino-3-cyano-5-(pyridine-2-carbonyl)-thiophen-2-yl]-2-methyl-benzamide]
< 10 µM | < 10 µM | COc1ccc(CNc2sc(C(=O)c3ccc(C)cc3C)c(N)c2C#N)cc1OC [Compound 1-162, 4-Amino-2-(3,4-dimethoxy-benzylamino)-5-(2,4-dimethyl-benzoyl)-thiophene-3-carbonitrile]
< 10 µM | > 10 µM | N#Cc1c(Nc2ccc(Oc3ccccc3)cc2)sc(C(=O)c2cccc(Cl)c2)c1N [Compound 1-163, 4-Amino-5-(3-chloro-benzoyl)-2-(4-phenoxy-phenylamino)-thiophene-3-carbonitrile]
< 10 µM | < 10 µM | N#Cc1c(Nc2ccc(OC(F)F)cc2)sc(C(=O)c2ccc(OC(F)F)cc2)c1N [Compound 1-165, 4-Amino-5-(4-difluoro-methoxy-benzoyl)-2-(4-difluoromethoxy-phenylamino)-thiophene-3-carbonitrile]
